From PubChem BioAssay (NCI)
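Where inhibition never reached the appropriate level, the endpoint shown equals the highest concentration tested. Otherwise, values were interpolated linearly from a five-concentration, 48-hour dose response in 96-well plates. GI50 = concentration required for 50% inhibition of growth. Definition used: TGI = concentration required for complete inhibition of growth.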

Experiments:
Test in all cases: DTP human tumour cell line panel, 48 h
BT-549 breast = system: BT-549 breast
NCI/ADR-RES ovarian = system: NCI/ADR-RES ovarian
U251 CNS = system: U251 CNS
NCI-H522 lung = system: NCI-H522 lung
IGROV1 ovarian = system: IGROV1 ovarian
A498 renal = system: A498 renal
MDA-MB-231 breast = system: MDA-MB-231 breast
OVCAR-5 ovarian = system: OVCAR-5 ovarian
A549 NSCLC = system: A549 NSCLC
SR leukemia = system: SR leukemia
HOP-92 NSCLC = system: HOP-92 NSCLC
HCT-116 colon = system: HCT-116 colon
NCI-H460 lung = system: NCI-H460 lung
SK-MEL-28 melanoma = system: SK-MEL-28 melanoma
CAKI-1 renal = system: CAKI-1 renal
PC-3 prostate = system: PC-3 prostate
EKVX NSCLC = system: EKVX NSCLC
SF-539 CNS = system: SF-539 CNS
SF-268 CNS = system: SF-268 CNS
SF-295 CNS = system: SF-295 CNS
UO-31 renal = system: UO-31 renal
HCC-2998 colon = system: HCC-2998 colon
RPMI-8226 leukemia = system: RPMI-8226 leukemia
LOX IMVI melanoma = system: LOX IMVI melanoma
RXF 393 renal = system: RXF 393 renal
MALME-3M melanoma = system: MALME-3M melanoma
OVCAR-3 ovarian = system: OVCAR-3 ovarian
UACC-62 melanoma = system: UACC-62 melanoma
MDA-MB-435 = system: MDA-MB-435
CCRF-CEM leukemia = system: CCRF-CEM leukemia
786-0 renal = system: 786-0 renal
OVCAR-4 ovarian = system: OVCAR-4 ovarian
MOLT-4 leukemia = system: MOLT-4 leukemia
OVCAR-8 ovarian = system: OVCAR-8 ovarian
SNB-75 CNS = system: SNB-75 CNS
UACC-257 melanoma = system: UACC-257 melanoma
K-562 leukemia = system: K-562 leukemia
HCT-15 colon = system: HCT-15 colon
SK-OV-3 ovarian = system: SK-OV-3 ovarian
M14 melanoma = system: M14 melanoma
DU-145 prostate = system: DU-145 prostate
SN12C renal = system: SN12C renal
HS 578T breast = system: HS 578T breast
HT29 colon = system: HT29 colon
SK-MEL-2 melanoma = system: SK-MEL-2 melanoma
SK-MEL-5 melanoma = system: SK-MEL-5 melanoma
TK-10 renal = system: TK-10 renal
NCI-H226 lung = system: NCI-H226 lung
HOP-62 NSCLC = system: HOP-62 NSCLC
ACHN renal = system: ACHN renal
SNB-19 CNS = system: SNB-19 CNS
SW-620 colon = system: SW-620 colon
COLO 205 colon = system: COLO 205 colon
KM12 colon = system: KM12 colon
NCI-H23 lung = system: NCI-H23 lung
MCF7 breast = system: MCF7 breast
HL-60(TB) leukemia = system: HL-60(TB) leukemia
T-47D breast = system: T-47D breast

Compound: C=C1C(=O)O[C@H]2[C@H]1CC/C(COC(=O)NCc1c[nH]c3ccc(Cl)cc13)=C\CC[C@@]1(C)O[C@@H]21
- GI50 (BT-549 breast): 1180 nM
- TGI (BT-549 breast): 2610 nM
- GI50 (NCI/ADR-RES ovarian): 2840 nM
- TGI (NCI/ADR-RES ovarian): 11300 nM
- GI50 (U251 CNS): 1660 nM
- TGI (U251 CNS): 3080 nM
- GI50 (NCI-H522 lung): 527 nM
- TGI (NCI-H522 lung): 2050 nM
- GI50 (IGROV1 ovarian): 1410 nM
- TGI (IGROV1 ovarian): 2940 nM
- GI50 (A498 renal): 1810 nM
- TGI (A498 renal): 4680 nM
- GI50 (MDA-MB-231 breast): 1660 nM
- TGI (MDA-MB-231 breast): 3300 nM
- GI50 (OVCAR-5 ovarian): 1770 nM
- TGI (OVCAR-5 ovarian): 4010 nM
- GI50 (A549 NSCLC): 1700 nM
- TGI (A549 NSCLC): 3430 nM
- GI50 (SR leukemia): 357 nM
- TGI (SR leukemia): 3880 nM
- GI50 (HOP-92 NSCLC): 1460 nM
- TGI (HOP-92 NSCLC): 3010 nM
- GI50 (HCT-116 colon): 1270 nM
- TGI (HCT-116 colon): 2610 nM
- GI50 (NCI-H460 lung): 1960 nM
- TGI (NCI-H460 lung): 3960 nM
- GI50 (SK-MEL-28 melanoma): 1690 nM
- TGI (SK-MEL-28 melanoma): 3290 nM
- GI50 (CAKI-1 renal): 1450 nM
- TGI (CAKI-1 renal): 2810 nM
- GI50 (PC-3 prostate): 1520 nM
- TGI (PC-3 prostate): 3080 nM
- GI50 (EKVX NSCLC): 1580 nM
- TGI (EKVX NSCLC): 3000 nM
- GI50 (SF-539 CNS): 1580 nM
- TGI (SF-539 CNS): 3040 nM
- GI50 (SF-268 CNS): 1660 nM
- TGI (SF-268 CNS): 3510 nM
- GI50 (SF-295 CNS): 1810 nM
- TGI (SF-295 CNS): 4090 nM
- GI50 (UO-31 renal): 1430 nM
- TGI (UO-31 renal): 2750 nM
- GI50 (HCC-2998 colon): 1960 nM
- TGI (HCC-2998 colon): 3690 nM
- GI50 (RPMI-8226 leukemia): 836 nM
- TGI (RPMI-8226 leukemia): 3510 nM
- GI50 (LOX IMVI melanoma): 633 nM
- TGI (LOX IMVI melanoma): 2030 nM
- GI50 (RXF 393 renal): 1370 nM
- TGI (RXF 393 renal): 2760 nM
- GI50 (MALME-3M melanoma): 1680 nM
- TGI (MALME-3M melanoma): 3340 nM
- GI50 (OVCAR-3 ovarian): 1110 nM
- TGI (OVCAR-3 ovarian): 2700 nM
- GI50 (UACC-62 melanoma): 1340 nM
- TGI (UACC-62 melanoma): 2760 nM
- GI50 (MDA-MB-435): 1120 nM
- TGI (MDA-MB-435): 2480 nM
- GI50 (CCRF-CEM leukemia): 341 nM
- TGI (CCRF-CEM leukemia): 1880 nM
- GI50 (786-0 renal): 1070 nM
- TGI (786-0 renal): 2490 nM
- GI50 (OVCAR-4 ovarian): 1450 nM
- TGI (OVCAR-4 ovarian): 3160 nM
- GI50 (MOLT-4 leukemia): 1340 nM
- TGI (MOLT-4 leukemia): 4910 nM
- GI50 (OVCAR-8 ovarian): 1380 nM
- TGI (OVCAR-8 ovarian): 3360 nM
- GI50 (SNB-75 CNS): 1290 nM
- TGI (SNB-75 CNS): 2570 nM
- GI50 (UACC-257 melanoma): 1630 nM
- TGI (UACC-257 melanoma): 3110 nM
- GI50 (K-562 leukemia): 416 nM
- TGI (K-562 leukemia): 2020 nM
- GI50 (HCT-15 colon): 615 nM
- TGI (HCT-15 colon): 1950 nM
- GI50 (SK-OV-3 ovarian): 5750 nM
- TGI (SK-OV-3 ovarian): 18900 nM
- GI50 (M14 melanoma): 1400 nM
- TGI (M14 melanoma): 2910 nM
- GI50 (DU-145 prostate): 1200 nM
- TGI (DU-145 prostate): 2650 nM
- GI50 (SN12C renal): 1370 nM
- TGI (SN12C renal): 3000 nM
- GI50 (HS 578T breast): 2450 nM
- TGI (HS 578T breast): 6820 nM
- GI50 (HT29 colon): 625 nM
- TGI (HT29 colon): 2120 nM
- GI50 (SK-MEL-2 melanoma): 1420 nM
- TGI (SK-MEL-2 melanoma): 2870 nM
- GI50 (SK-MEL-5 melanoma): 1640 nM
- TGI (SK-MEL-5 melanoma): 3010 nM
- GI50 (TK-10 renal): 1610 nM
- TGI (TK-10 renal): 2980 nM
- GI50 (NCI-H226 lung): 1610 nM
- TGI (NCI-H226 lung): 3090 nM
- GI50 (HOP-62 NSCLC): 1720 nM
- TGI (HOP-62 NSCLC): 3740 nM
- GI50 (ACHN renal): 1330 nM
- TGI (ACHN renal): 2610 nM
- GI50 (SNB-19 CNS): 3720 nM
- TGI (SNB-19 CNS): 14700 nM
- GI50 (SW-620 colon): 657 nM
- TGI (SW-620 colon): 2200 nM
- GI50 (COLO 205 colon): 1190 nM
- TGI (COLO 205 colon): 2690 nM
- GI50 (KM12 colon): 2370 nM
- TGI (KM12 colon): 6280 nM
- GI50 (NCI-H23 lung): 1710 nM
- TGI (NCI-H23 lung): 3390 nM

Compound: Nc1ncnc2c1ncn2CC(CO)CC(c1ccccc1)P(=O)(O)O (stereo not given)
- TGI (M14 melanoma): 1640 nM

Compound: O=[n+]1c2ccccc2n([O-])c2cc(Br)ccc21
- TGI (MCF7 breast): 53000 nM
- TGI (NCI/ADR-RES ovarian): 68900 nM
- TGI (U251 CNS): 78800 nM
- TGI (NCI-H522 lung): 30200 nM
- TGI (IGROV1 ovarian): 18800 nM
- TGI (A498 renal): 40200 nM
- TGI (MDA-MB-231 breast): > 100000 nM
- TGI (OVCAR-5 ovarian): > 100000 nM
- TGI (A549 NSCLC): 39400 nM
- TGI (HL-60(TB) leukemia): 7560 nM
- TGI (SR leukemia): 5210 nM
- TGI (HCT-116 colon): > 100000 nM
- TGI (NCI-H460 lung): > 100000 nM
- TGI (SK-MEL-28 melanoma): > 100000 nM
- TGI (CAKI-1 renal): 17200 nM
- TGI (EKVX NSCLC): 49900 nM
- TGI (SF-539 CNS): 37500 nM
- TGI (SF-268 CNS): 55300 nM
- TGI (SF-295 CNS): 46400 nM
- TGI (UO-31 renal): 28100 nM
- TGI (HCC-2998 colon): 39900 nM
- TGI (RPMI-8226 leukemia): 61400 nM
- TGI (LOX IMVI melanoma): 13600 nM
- TGI (RXF 393 renal): 41100 nM
- TGI (MALME-3M melanoma): 39700 nM
- TGI (OVCAR-3 ovarian): 9040 nM
- TGI (UACC-62 melanoma): 55600 nM
- TGI (MDA-MB-435): 36500 nM
- TGI (CCRF-CEM leukemia): > 100000 nM
- TGI (786-0 renal): > 100000 nM
- TGI (OVCAR-4 ovarian): 45200 nM
- TGI (T-47D breast): 45900 nM
- TGI (MOLT-4 leukemia): 2190 nM
- TGI (OVCAR-8 ovarian): 47900 nM
- TGI (SNB-75 CNS): 77700 nM
- TGI (UACC-257 melanoma): 34900 nM
- TGI (K-562 leukemia): 33400 nM
- TGI (HCT-15 colon): 32000 nM
- TGI (M14 melanoma): > 100000 nM
- TGI (DU-145 prostate): 98900 nM
- TGI (SN12C renal): 42300 nM
- TGI (HS 578T breast): > 100000 nM
- TGI (HT29 colon): 39100 nM
- TGI (SK-MEL-2 melanoma): 56800 nM
- TGI (SK-MEL-5 melanoma): 39500 nM
- TGI (TK-10 renal): 72900 nM
- TGI (NCI-H226 lung): 48500 nM
- TGI (HOP-62 NSCLC): > 100000 nM
- TGI (ACHN renal): 17400 nM
- TGI (SNB-19 CNS): > 100000 nM
- TGI (SW-620 colon): 75700 nM
- TGI (COLO 205 colon): 57200 nM
- TGI (KM12 colon): 30900 nM
- TGI (NCI-H23 lung): 49600 nM
